Test: Half life in human plasma at 20 mg/day, po
Assay type: ADME, organism-based

half-life: 600 to 720 min
SMILES: Cl.Clc1ccc(CCCOCCCN2CCCCC2)cc1 [PITOLISANT HYDROCHLORIDE]

Source: ChEMBL document CHEMBL4145555, “Synthetic Approaches to New Drugs Approved During 2016” (J Med Chem, 2018)
